# From patent publication US20250263404A1, “AMINOPYRIDINES AS ACTIVATORS OF PI3 KINASE” (UCL Business Ltd, priority 2021, published 2025)
# What was measured:
# [1] = tested on: adult rat dorsal root ganglion (DRG) cultures; assay: Neurite outgrowth in dissociated adult rat DRG cultures; type: cell-based; settings: 72 h
# Text: Given that there are currently no small molecule clinical-stage treatments routinely used to stimulate neuronal regeneration such as for injury to peripheral nerves, the spinal cord or optic nerves, we explored the potential of PI3Kα activation in this context.
# Dorsal root ganglion (DRG) neurons were isolated from adult male (>250 g) Wistar rats as described, with DRGs from each rat cultured separately (Rayner, M. L. D. et al. Anatomical record 301, 1628-1637 (2018)). Following culling via schedule 1 (rising concentration of CO2), the spinal column was removed and stored in PBS on ice. Cord tissue was removed to expose the DRG and roots in the intervertebral foramen and the DRGS removed with forceps and scalpel under a dissecting microscope (Olympus SZ40). DRGs were manually cleaned by removal of roots, capsule and capillaries with forceps and then placed in DMEM supplemented with P/S. DRGs were treated with 0.125% collagenase type IV solution at 37° C. for 90 min, and then mechanically dissociated by trituration using a 1 ml pipette. The collagenase solution was removed by 2 rounds of centrifugation in complete DMEM (DMEM with 1% P/S and 10% FBS) at 400×g for 5 min, followed by resuspension of the DRG cell pellet in complete DMEM supplemented with 0.01 mM cytosine arabinoside. DRGs were plated in 75-cm^2 flasks coated with 0.1 mg/ml poly-D-lysine and incubated at 37° C., 5% CO2. […]
# [2] = biological target: T1, mTORC1 (mTOR/RAPTOR/LST8 complex) (Homo sapiens, UniProt P42345); assay: mTORC1 kinase assay (Phos-tag gel); type: biochemical; settings: 200 μM 1938
# T1 construct: made in house
# Procedure: 133 protein kinases and 7 lipid kinases were counterscreened, with […] used at 1 μM, using the Adapta, Lantha and Z-LYTE assays (SelectScreen Kinase Profiling Service; Thermofisher—experimental details of these assays can be found here: https://www.thermofisher.com/uk/en/home/industrial/pharma-biopharma/drug-discovery-development/target-and-lead-identification-and-validation/kinasebiology/kinase-activity-assays.html. The tree representation in KinMap generated courtesy of Cell Signaling Technology, Inc. (www.cellsignal.com). mTORC1 (mTOR/RAPTOR/LST8) protein complex and ATM kinase and substrates were produced as previously described (Anandapadamanaban, M. et al. Science (New York, NY 366, 203-210 (2019); Baretic, D. et al. Sci Adv 3, e1700933 (2017). Screening of 1938 was conducted using SuperSep Phos-Tag 50 μmol/l 100×100×6.6 mm 17-well (192-18001/199-18011) gels. For ATM assays, 100 nM ATM was incubated for 30 min at 30° C. with 5 μM GST-p53 and 1 mM ATP, in the absence or presence of 200 μM 1938 in ATM Kinase Buffer (50 mM HEPES pH 7.5, 100 mM NaCl, 10% glycerol, 2 mM […], 5 mM MgCl2). […] Gels were then stained using InstantBlue™ Coomassie stain, and then quantified using BioRad Image Lab Software. […]
structure (smiles),measurement,setting,value
CCN1CCN(c2ccc(Nc3cc(Nc4cccc5c4N(C(C)=O)CC5)ccn3)cc2)CC1 [Example 1938],neurite outgrowth,[1]; dose-dependent,significantly increased neurite outgrowth
same,total length of neurites,[1]; higher 1938 concentrations,doubling the total length of neurites
same,activity of mTORC1,[2],did not affect
